Reference: US20260007688A1, “SYNTHETIC ANALOGS OF CANNABINOL (CBN) FOR THE TREATMENT OF AGERELATED NEUROLOGICAL DISORDERS” (priority 2023, published 2026)
Read-outs that look alike come from different tables or passages of the source.

Tests used:
HT22 cells [1] = experiment: Ferroptosis assay, RSL3-induced cell death, MTT viability; format: cell-based; settings: Mus musculus, HT-22, 50 nM RSL3, 16 hours
Experimental: (§1) HT22 mouse hippocampal nerve cells were cultured in high-glucose Dulbecco's modified Eagle's medium (DMEM) (Invitrogen, Cat #11995065, Carlsbad, CA) supplemented with 10% fetal bovine serum (FBS) (Invitrogen, Carlsbad, CA) and 1% antibiotics including penicillin and streptomycin (Invitrogen Cat #10378016, Carlsbad, CA). Cell cultures were incubated at 37° C. in a fully humidified atmosphere containing 10% CO2.
(§2) The assay procedure described in Fischer et al. was used. Briefly, HT22 cells were seeded at 3,000 cells/well in 96-well tissue culture plates in DMEM plus 10% FBS and 1% antibiotics. After 24 hours of plating, the cells were pretreated with different concentrations of test compounds or a vehicle control for 1 hour followed by coincubation with 50-100 nM RSL3 or 500 nM erastin to induce the cell death cascade. After 16 hours of treatment, cell viability was measured by the MTT assay. Optical absorbance was measured at 570 nm on a SpectraMax M5 microplate reader. Samples were analyzed in eight to sixteen wells per independent experiment (n=8-16). Results are presented as the percentage of the controls with vehicle alone.

HT22 cells [2] = experiment: Oxytosis assay, glutamate-induced cell death, MTT viability; format: cell-based; settings: Mus musculus, HT-22, 5 mM glutamate, 16 hours
Experimental: as §1
The assay procedure described in Fischer et al., “Old age-associated phenotypic screening for Alzheimer's disease drug candidates identifies sterubin as a potent neuroprotective compound from Yerba santa” Redox Biol. 21 (2019) 101089 was used. Briefly, HT22 cells were seeded at 3,000 cells/well in 96-well tissue culture plates in DMEM plus 10% FBS and 1% antibiotics. After 24 hours of plating, the cells were pretreated with different concentrations of the test compounds or a vehicle control for 1 hour followed by coincubation with 5 mM glutamate to initiate the cell death cascade. After 16 hours of treatment, cell viability was measured by the 3-(4,5-dimethylthiazol-2-yl)-2,5-diphenyltetrazolium bromide (MTT) assay. Optical absorbance was measured at 570 nm on a SpectraMax M5 microplate reader. Samples were analyzed in eight to sixteen wells per independent experiment (n=8-16). Results are presented as the percentage of the controls with vehicle alone.

HT22 cells [3] = experiment: Ferroptosis assay, erastin-induced cell death, MTT viability; format: cell-based; settings: Mus musculus, HT-22, 500 nM erastin, 16 hours
Experimental: as §1, §2

MC65 cells = experiment: Intracellular amyloid toxicity assay; format: cell-based; settings: Homo sapiens, 72 h, APP-C99 induced, day 3, MTT, read-out: Aβ toxicity EC50
From the text: Accumulation of intracellular amyloid beta peptide (Aβ) is considered by many as being a primary toxic event in AD. The human nerve cell line MC65 conditionally expresses the C99 fragment of the amyloid precursor protein (APP) leading to the accumulation of intracellular AB. The MC65 cells are routinely grown in the presence of tetracycline and, following its removal, the expression of C99 is induced and the cells die within three days because of the accumulation of intracellular, toxic protein aggregates.
For the intracellular amyloid toxicity assay the procedure described in Huang et al., “Intracellular amyloid toxicity induces oxytosis/ferroptosis regulated cell death” Cell Death Dis. 11 (10) (2020) 828 was used. Briefly, MC65 cells were regularly grown in high glucose DMEM supplemented with 10% FCS and 2 μg/ml tetracycline. For the assay, cells were dissociated and plated at 1×10^5 cells per well in 24 well tissue culture plates. After overnight cultivation in growth medium, the cells were washed three times with phosphate buffered saline containing calcium and magnesium and then switched to Opti-minimal essential media (Opti-MEM, Invitrogen) in the presence (no induction) or absence (APP-C99 induced) of 2 μg/ml tetracycline in the presence or absence different concentrations of the indicated compounds. At day 3, the control cells in the absence of tetracycline were dead, and cell viability was determined by the MTT assay. Optical absorbance was measured at 570 nm on a SpectraMax M5 microplate reader. Samples were analyzed in three wells per independent experiment (n=3). Results are presented as EC50.

Drosophila melanogaster = experiment: Drosophila mild traumatic brain injury (mTBI) model; format: in vivo; settings: 3.0 μM in food, 3 weeks after mTBI (10×); vehicle 70.2%
HT22 cells [4] = format: cell-based, mouse
From the text: A series of fragment chemicals with different variants of the substructures were assembled and screened in a cell-based phenotypic screening assays in the context of oxytosis/ferroptosis (FIG. 1). Specifically, for the left unit (LU), monoterpenoids with different functional groups and/or double-bond substitutions as well as ring arrangements were screened. For the central unit (CU), benzene rings with different hydroxyl group substitutions were screened. For the right unit (RU), different lengths, with or without branches, of the aliphatic hydrocarbon chains were examined.
CBN, CBD and THC were used as reference compounds.
Briefly, HT22 cells were seeded at 3,000 cells/well in 96-well tissue culture plates in DMEM plus 10% FBS and 1% antibiotics. After 24 hours of plating, the cells were pretreated with different concentrations of the test compounds or a vehicle control for 1 hour followed by coincubation with 5 mM glutamate to initiate the cell death cascade. After 16 hours of treatment, cell viability was measured by the 3-(4,5-dimethylthiazol-2-yl)-2,5-diphenyltetrazolium bromide (MTT) assay. Optical absorbance was measured at 570 nm on a SpectraMax M5 microplate reader. Samples were analyzed in eight to sixteen wells per independent experiment (n=8-16).
as §2, with “(n=8-16).” for “(n=8-16). Results are presented as the percentage of the controls with vehicle alone.”

HT22 cells [5] = experiment: Seahorse XF mitochondrial stress test (OCR); format: cell-based, mouse; settings: 16 hours, compared with the control cells
HT22 cells [6] = experiment: Mitochondrial reactive oxygen species measurement (MitoSOX Red); format: cell-based, mouse; settings: 5 μM compound + 50 nM RSL3
Experimental: The assay procedure described in Liang et al. was used. Briefly, HT22 cells were seeded onto 96-well black walled plates at a density of 3,000 cells/well in DMEM supplemented with 10% FBS and 1% antibiotics. After the desired treatments, the mitochondrial superoxide ROS were detected with MitoSOX Red reagent (Ex/Em=510/580 nm). Experiments were performed according to the manufacturer's instructions. Fluorescence was measured on a SpectraMax M5 microplate reader. Data were normalized for total protein/well. Each condition was analyzed in eight wells per independent experiment (n=8). Results are presented as the percentage of the controls with vehicle alone. Results were verified by live-cell imaging under a fluorescence microscope. FIG. 14 provides the results.

SMILES: CCCCCc1cc(O)c2c(c1)OC(C)(C)C=C2 [CP3, 2,2-dimethyl-7-pentyl-2H-chromen-5-ol]
- EC50 (HT22 cells [1]): 860 nM
- EC50 (HT22 cells [2]): 2600 nM
- EC50 (HT22 cells [3]): 3780 nM
- EC50 (MC65 cells): 144 nM
- 3-week mortality index (MI), percentage of dead flies (Drosophila melanogaster): 67.3%

SMILES: Oc1cc(O)cc(O)c1 [phloroglucinol]
- neuroprotective activity against oxytosis/ferroptosis (HT22 cells [4]; 1-50 μM, glutamate and RSL3): limited neuroprotective activity

SMILES: Oc1ccc(O)c(O)c1 [hydroxyquinol]
- neuroprotective activity against oxytosis/ferroptosis (HT22 cells [4]; 1-50 μM, glutamate and RSL3): limited neuroprotective activity

SMILES: CCCCCCc1ccc(O)cc1O [4-hexylresorcinol, 4-hexylbenzene-1,3-diol]
- neuroprotective activity against oxytosis/ferroptosis (HT22 cells [4]; 10-50 μM, glutamate and RSL3): good to excellent neuroprotective activity

SMILES: CCCCCCC(C)(C)c1cc(O)cc(O)c1 [5-(1,1-dimethylheptyl) resorcinol]
- neuroprotection (HT22 cells [4]; 1 μM): > 50%

SMILES: CCCCCCC(C)(C)c1cc(O)c2c(c1)OC(C)(C)C=C2 [CP1, 2,2-dimethyl-7-(2-methyloctan-2-yl)-2H-chromen-5-ol]
- EC50 (HT22 cells [1]): 680 nM
- EC50 (HT22 cells [2]): 1890 nM
- EC50 (HT22 cells [3]): 2780 nM
- EC50 (MC65 cells): 31 nM
- maximal and spare mitochondrial respiration (OCR) (HT22 cells [5]): strongest effect on the suppression
- RSL3-induced mtROS production (HT22 cells [6]): strongest anti-mtROS effect
- 3-week mortality index (MI), percentage of dead flies (Drosophila melanogaster): 49.5%

SMILES: Oc1ccc(O)cc1 [hydroquinone]
- neuroprotective activity against oxytosis/ferroptosis (HT22 cells [4]): weak neuroprotective activities

SMILES: CCCCCCCCCCCCCCCc1cc(O)cc(O)c1 [5-pentadecylresorcinol]
- neuroprotective activity against oxytosis/ferroptosis (HT22 cells [4]; 1-50 μM, glutamate and RSL3): no further improvement in neuroprotective activity

SMILES: CCCCCCC(C)(C)c1cc(O)c2c(c1)OC(C)C=C2 (centres unmarked) [CP2, 2-methyl-7-(2-methyloctan-2-yl)-2H-chromen-5-ol]
- EC50 (HT22 cells [1]): 920 nM
- EC50 (HT22 cells [2]): 2890 nM
- EC50 (HT22 cells [3]): 3360 nM
- EC50 (MC65 cells): 97 nM
- 3-week mortality index (MI), percentage of dead flies (Drosophila melanogaster): 66.7%

SMILES: CCCCc1ccc(O)c(O)c1 [4-butylbenzene-1,2-diol]
- neuroprotective activity against oxytosis/ferroptosis (HT22 cells [4]; 10-50 μM, glutamate and RSL3): good to excellent neuroprotective activity

SMILES: CCCCCc1cc(O)cc(O)c1 [olivetol, 5-pentyl-1,3-benzenediol]
- neuroprotective activity against oxytosis/ferroptosis (HT22 cells [4]; 10-50 μM, glutamate and RSL3): good to excellent neuroprotective activity

SMILES: Oc1cccc(O)c1O [pyrogallol]
- neuroprotective activity against oxytosis/ferroptosis (HT22 cells [4]; 1-50 μM, glutamate and RSL3): limited neuroprotective activity

SMILES: Oc1cccc(O)c1 [resorcinol]
- neuroprotective activity against oxytosis/ferroptosis (HT22 cells [4]; 1-50 μM, glutamate and RSL3): limited neuroprotective activity

SMILES: Oc1ccccc1O [catechol]
- neuroprotective activity against oxytosis/ferroptosis (HT22 cells [4]; 10-50 μM, glutamate and RSL3): weak neuroprotective activities

SMILES: CCCCCc1cc(O)c2c(c1)OC(C)C=C2 (centres unmarked) [CP4, 2-methyl-7-pentyl-2H-chromen-5-ol]
- EC50 (HT22 cells [1]): 830 nM
- EC50 (HT22 cells [2]): 6630 nM
- EC50 (HT22 cells [3]): 8080 nM
- EC50 (MC65 cells): 1600 nM
- 3-week mortality index (MI), percentage of dead flies (Drosophila melanogaster): 61.9%

SMILES: Oc1ccccc1 [phenol]
- neuroprotective activity against oxytosis/ferroptosis (HT22 cells [4]): limited neuroprotective activity

SMILES: CC(C)(C)c1cc(O)ccc1O [2-tert-butylbenzene-1,4-diol]
- neuroprotective activity against oxytosis/ferroptosis (HT22 cells [4]; 10-50 μM, glutamate and RSL3): good to excellent neuroprotective activity
